Key:
BT474 cells = experiment: BT-474 cell growth inhibition assay (SRB assay); format: cell-based; details: Homo sapiens, concentration of 3 μM, 72 h, read-out: Inhibition Percent (%)
Procedure: BT-474 Cell Growth Inhibition Assay (SRB Assay)
BT-474 human breast cancer cell lines were kindly provided by Dr. Changnian Liu, Pharmaron Beijing Co., Ltd.
BT-474 cells were cultured in 37° C., 5% CO2, saturated humidity until logarithmic phase. Discarded culture medium, washed cells once by PBS. Added 1 ml Trypsin/EDTA solution, stood at 37° C. for 5 min, allowed the cells to detach. Added culture medium, adjusted the cells density to 1×10^5 cells/ml.
Day 0, added 100 μl/well cells suspension to 96-well cell culture plates. Incubated overnight to let the cells attach completely.
Day 1, compounds (2 mM in DMSO as stock solution) was diluted to 20 μM in EMEM. Then a fourfold serial dilution was made. These diluted compounds were made as 10× reaction solutions, and the concentration of DMSO was kept at 1%.
Added 80 μl culture medium and 20 μl 10× compound reaction solution to the testing wells, or vehicle control to the control wells. Co-incubated cells with compounds for another 72 h.
Day 3, fixed cellular protein by the addition of 100 μl/well of 10% TCA (diluting from 50% TCA) at 4° C. for 1 h. Rinsed TCA using plate washer, and washed five times using distilled water. Removed the residual wash solution with a piece of absorbent paper. Added 100 μl/well 0.4% SRB solution, allowed a 15-30 min staining period. Removed the SRB, and washed the culture plates five times using 1% acetic acid. Removed the residual wash solution with a piece of absorbent paper. Air-dried the culture plates, dissolved the protein-bound dye with 100 μl/well of 10 mM Tris base solution. Shook the plates until the dye was dissolved completely.

A431 cells = experiment: A431 cell growth inhibition assay (MTT assay); format: cell-based; details: Homo sapiens; for inhibition at 3 µM: A-431, concentration of 3 μM, 72 hours, read-out: Inhibition Percent (%); for EC50: A-431, 72 hours (Table 11)
Procedure: A431 Cell Growth Inhibition Assay (MTT Assay)
A431, an epidermoid carcinoma cell line; The Cell Bank, Committee on Type Culture Collection Chinese Academy of Science, Shanghai.
Mix prepared medium DMEM and F12 in the proportion of 1:1, then add FBS to a final concentration of 10%.
Dissolved the dried compound sample with 100% DMSO to 2 mM. Then diluted the dissolved compound to 20 μM with cell complete growth medium.
Prior to the assay, cultured the A431 to logarithmic phase, and then removed medium from cell monolayers and wash the cells once with sterilized PBS. Aspriated the PBS and added 2 mL trypsin solution to cover the cell growth surface, removed 1 mL trypsin solution after soaking about 1 minute. Transferred the cell-culture plate to CO2 incubator; incubated at 37° C. for 8 minutes to allow cells to dissociate. After the cells detached, added 4 mL complete growth medium containing FBS with pipette to disperse them off and mixed gently to obtain a homogeneous cell suspension. Aspirated some of the cell suspension to a sterilized polypropylene tube, and determined the cell concentration by counting in a hematocytometer chamber under a microscope. Adjusted the cell concentration with growth medium to obtain 2.5×10^4 cells per milliliter.
Added 100 μL adjusted cell suspension to the 96-well cell-culture plate and occasionally mixed the cell suspension during the seeding process. After seeding cells, incubated the plate at 37° C. overnight with 5% CO2 in the CO2 incubator for cell attachment.
After the cell attachment, added 100 μL prepared compound solutions to the corresponding wells (add PBS to the ambient wells of the plate). The final compound concentrations ranged from 10 μM to 1.52 nM. Incubated the plate at 37° C. with 5% CO2 for 72 hours in the CO2 incubator.
After the exposure to the compound, removed the cell culture supernatant. Then added 100 μL 0.5 mg/mL MTT solution which dissolved in the growth medium without FBS. Incubated the plate at 37° C. with 5% CO2 for another 4 hours to allow the MTT reaction to proceed.
After the MTT reaction, discarded the MTT reaction solution. Added 100 μL DMSO to each well, and the plate was agitated on the plate shaker for several minutes to dissolve the formazan. Then, detected the absorbance at 490 nm using microplate reader.

Row | Structure (SMILES) | inhibition at 3 µM (BT474 cells) [%] | inhibition at 3 µM (A431 cells) [%] | EC50 (A431 cells) [µM]
1 | CCN1CCC(=CC(=O)Nc2cc3c(Nc4ccc(OCc5ccccn5)c(Cl)c4)c(C#N)cnc3cc2OCCOC)CC1 [Example 201, N-(4-(3-chloro-4-(pyridin-2-ylmethoxy)phenylamino)-3-cyano-7-(2-methoxyethoxy)quinolin-6-yl)-2-(1-ethylpiperidin-4-ylidene)acetamide] | 89 |  | 
2 | C#Cc1cccc(Nc2c(C#N)cnc3cc(OCC)c(NC(=O)C=C4CCN(CCOC)CC4)cc23)c1 [Example 159, N-(3-cyano-7-ethoxy-4-(3-ethynylphenylamino)quinolin-6-yl)-2-(1-(2-methoxyethyl)piperidin-4-ylidene)acetamide] | 53 | 83 | 
3 | CCOc1cc2ncc(C#N)c(Nc3ccc(OCc4ccccn4)c(Cl)c3)c2cc1NC(=O)C=C1CCN(CC)CC1 [Example 199, N-(4-(3-chloro-4-(pyridin-2-ylmethoxy)phenylamino)-3-cyano-7-ethoxyquinolin-6-yl)-2-(1-ethylpiperidin-4-ylidene)acetamide] | 87 |  | 
4 | COCCOc1cc2ncc(C#N)c(Nc3ccc(OCc4cccc(F)c4)c(Cl)c3)c2cc1NC(=O)C=C1CCN(CCOC)CC1 [Example 211, N-(4-(4-(3-fluorobenzyloxy)-3-chlorophenylamino)-3-cyano-7-(2-methoxyethoxy)quinolin-6-yl)-2-(1-(2-methoxyethyl)piperidin-4-ylidene)acetamide] | 81 |  | 
5 | COCCOc1cc2ncc(C#N)c(Nc3ccc(OCc4cccc(F)c4)c(Cl)c3)c2cc1NC(=O)C=C1CCNCC1 [Example 167, N-(4-(4-(3-fluorobenzyloxy)-3-chlorophenylamino)-3-cyano-7-(2-methoxyethoxy)quinolin-6-yl)-2-(piperidin-4-ylidene)acetamide] | 84 | 45 | 
6 | N#Cc1cnc2ccc(NC(=O)C=C3CCNCC3)cc2c1Nc1ccc(OCc2ccccn2)c(Cl)c1 [Example 166, N-(4-(3-chloro-4-(pyridin-2-ylmethoxy)phenylamino)-3-cyanoquinolin-6-yl)-2-(ppiperidin-4-ylidene)acetamide] | 85 | 49 | 
7 | CCOc1cc2ncc(C#N)c(Nc3ccc(OCc4cccc(F)c4)c(Cl)c3)c2cc1NC(=O)C=C1CCN(CC)CC1 [Example 206, N-(4-(4-(3-fluorobenzyloxy)-3-chlorophenylamino)-3-cyano-7-ethoxyquinolin-6-yl)-2-(1-ethylpiperidin-4-ylidene)acetamide] | 80 |  | 
8 | N#Cc1cnc2ccc(NC(=O)C=C3CCNCC3)cc2c1Nc1ccc(F)c(Cl)c1 [Example 173, N-(4-(3-chloro-4-fluorophenylamino)-3-cyanoquinolin-6-yl)-2-(piperidin-4-ylidene)acetamide] | 44 | 87 | 
9 | C#Cc1cccc(Nc2c(C#N)cnc3cc(OCC)c(NC(=O)C=C4CCN(C)CC4)cc23)c1 [Example 158, N-(3-cyano-7-ethoxy-4-(3-ethynylphenylamino)quinolin-6-yl)-2-(1-methylpiperidin-4-ylidene)acetamide] | 57 | 90 | 
10 | CCN1CCC(=CC(=O)Nc2cc3c(Nc4ccc(OCc5cccc(F)c5)c(Cl)c4)c(C#N)cnc3cc2OCCOC)CC1 [Example 209, N-(4-(4-(3-fluorobenzyloxy)-3-chlorophenylamino)-3-cyano-7-(2-methoxyethoxy)quinolin-6-yl)-2-(1-ethylpiperidin-4-ylidene)acetamide] | 78 |  | 
11 | CCOc1cc2ncc(C#N)c(Nc3ccc(F)c(Cl)c3)c2cc1NC(=O)C=C1CCN(C)CC1 [Example 156, N-(4-(3-chloro-4-fluorophenylamino)-3-cyano-7-ethoxyquinolin-6-yl)-2-(1-methylpiperidin-4-ylidene)acetamide] | 60 | 89 | 
12 | C#Cc1cccc(Nc2c(C#N)cnc3ccc(NC(=O)C=C4CCNCC4)cc23)c1 [Example 170, N-(3-cyano-4-(3-ethynylphenylamino)quinolin-6-yl)-2-(piperidin-4-ylidene)acetamide] | 56 | 88 | 
13 | CCCN1CCC(=CC(=O)Nc2cc3c(Nc4ccc(OCc5ccccn5)c(Cl)c4)c(C#N)cnc3cc2OCCOC)CC1 [Example 202, N-(4-(3-chloro-4-(pyridin-2-ylmethoxy)phenylamino)-3-cyano-7-(2-methoxyethoxy)quinolin-6-yl)-2-(1-propylpiperidin-4-ylidene)acetamide] | 92 |  | 
14 | CCOc1cc2ncc(C#N)c(Nc3ccc(OCc4ccccn4)c(Cl)c3)c2cc1NC(=O)C=C1CCN(CCOC)CC1 [Example 161, N-(4-(3-chloro-4-(pyridin-2-ylmethoxy)phenylamino)-3-cyano-7-ethoxyquinolin-6-yl)-2-(1-(2-methoxyethyl)piperidin-4-ylidene)acetamide] | 90 | 49 | 
15 | CCOc1cc2ncc(C#N)c(Nc3ccc(OCc4cccc(F)c4)c(Cl)c3)c2cc1NC(=O)C=C1CCNCC1 [Example 145, N-(4-(4-(3-fluorobenzyloxy)-3-chlorophenylamino)-3-cyano-7-ethoxyquinolin-6-yl)-2-(piperidin-4-ylidene)acetamide] | 80 | 49 | 3.4
16 | COc1cc2ncc(C#N)c(Nc3ccc(OCc4ccccn4)c(Cl)c3)c2cc1NC(=O)C=C1CCN(C)CC1 [Example 197, N-(4-(3-chloro-4-(pyridin-2-ylmethoxy)phenylamino)-3-cyano-7-methoxyquinolin-6-yl)-2-(1-methylpiperidin-4-ylidene)acetamide] | 82 |  | 
17 | COc1cc2ncc(C#N)c(Nc3ccc(Oc4cccc(F)c4)c(Cl)c3)c2cc1NC(=O)C=C1CCNCC1 [Example 146, N-(4-(3-chloro-4-(3-fluorophenoxy)phenylamino)-3-cyano-7-methoxyquinolin-6-yl)-2-(piperidin-4-ylidene)acetamide] | 85 | 52 | 
18 | C#Cc1cccc(Nc2c(C#N)cnc3cc(OCC)c(NC(=O)C=C4CCNCC4)cc23)c1 [Example 152, N-(3-cyano-7-ethoxy-4-(3-ethynylphenylamino)quinolin-6-yl)-2-(piperidin-4-ylidene)acetamide] | 59 | 95 | 0.14
19 | COCCOc1cc2ncc(C#N)c(Nc3ccc(OCc4cccc(F)c4)c(Cl)c3)c2cc1NC(=O)C=C1CCN(C)CC1 [Example 208, N-(4-(4-(3-fluorobenzyloxy)-3-chlorophenylamino)-3-cyano-7-(2-methoxyethoxy)quinolin-6-yl)-2-(1-methylpiperidin-4-ylidene)acetamide] | 83 |  | 
20 | COCCOc1cc2ncc(C#N)c(Nc3ccc(OCc4ccccn4)c(Cl)c3)c2cc1NC(=O)C=C1CCN(C)CC1 [Example 200, N-(4-(3-chloro-4-(pyridin-2-ylmethoxy)phenylamino)-3-cyano-7-(2-methoxyethoxy)quinolin-6-yl)-2-(1-methylpiperidin-4-ylidene)acetamide] | 90 |  | 
21 | COCCN1CCC(=CC(=O)Nc2cc3c(Nc4ccc(OCc5ccccn5)c(Cl)c4)c(C#N)cnc3cc2OC)CC1 [Example 198, N-(4-(3-chloro-4-(pyridin-2-ylmethoxy)phenylamino)-3-cyano-7-methoxyquinolin-6-yl)-2-(1-(2-methoxyethyl)piperidin-4-ylidene)acetamide] | 86 |  | 

— patent publication US8765946B2, “Methods of preparing and using quinazoline and quinoline derivatives” (priority 2006, dated 2014)
